According to ChEMBL document CHEMBL4418496, “Inhibitors of crl4 ubiquitin ligase and uses thereof” (2014):
Active and inactive are the calls of the source. The calls are words filed in the database; no cut-off is given here. Where a SMILES comes first, the peptide text is derived from it. The star is where a group is joined. Cbz = O=C(OCc1ccccc1)*

Key:
Cullin-4A (Mus musculus) [1] = target: Cullin-4A (Mus musculus) (UniProt Q3TCH7); experiment: Inhibition of CUL4A in mouse MEF cells stably expressing FL FLAG-tagged DDB2 assessed as reduction in F-DDB2 degradation incubated for 2 hrs before irradiated with 10 J/m2 UV irradiation; format: cell-based
Cullin-1 (Homo sapiens) = Cullin-1 (Homo sapiens) (UniProt Q13616); experiment: Inhibition of CUL1 in human U20S cells assessed as reduction in TNF-alpha-induced IkappaB-alpha degradation at 50 uM incubated for 2 hrs followed by TNFalpha stimulation for 15 mins by Western blotting analysis; format: cell-based
Cullin-4B (Homo sapiens) = Cullin-4B (Homo sapiens) (UniProt Q13620); experiment: Inhibition of CUL4B in human MCF7 cells assessed as reduction in 3-methylcholanthrene-induced androgen receptor degradation at 50 uM; format: cell-based
Cullin-4A [2] = target: T1, Cullin-4A (Homo sapiens, UniProt Q13619); experiment: Inhibition of GST-tagged CUL4A/Rbxl ubiquitin ligase activity (unknown origin) assessed as reduction in reconstituted DDB1 ubiquitination in presence of ubiquitin, El, E2 and DDB1 incubated for 1 hr by Western blotting analysis
Cullin-4A [3] = target: T1, Cullin-4A; experiment: Inhibition of CUL4A in human HCT116 cells assessed as promotion of UV-damaged DNA repair by measuring enhancement of 6,4-photoproducts removal pre-incubated for 2 hrs before UV-irradiation by ELISA; format: cell-based
Cullin-4A (Mus musculus) [4] = target: Cullin-4A (Mus musculus) (UniProt Q3TCH7); experiment: Inhibition of CUL4A in mouse MEF cells stably expressing FL FLAG-tagged DDB2 assessed as reduction in F-DDB2 degradation incubated for 2 hrs before irradiated with 10 J/m2 UV irradiation relative to control; format: cell-based
Proteasome = experiment: Inhibition of proteasome in mouse MEF cells stably expressing FL FLAG-tagged DDB2 assessed as reduction in F-DDB2 degradation incubated for 2 hrs before irradiated with 10 J/m2 UV irradiation

T1 sequence (Q13619 whole entry): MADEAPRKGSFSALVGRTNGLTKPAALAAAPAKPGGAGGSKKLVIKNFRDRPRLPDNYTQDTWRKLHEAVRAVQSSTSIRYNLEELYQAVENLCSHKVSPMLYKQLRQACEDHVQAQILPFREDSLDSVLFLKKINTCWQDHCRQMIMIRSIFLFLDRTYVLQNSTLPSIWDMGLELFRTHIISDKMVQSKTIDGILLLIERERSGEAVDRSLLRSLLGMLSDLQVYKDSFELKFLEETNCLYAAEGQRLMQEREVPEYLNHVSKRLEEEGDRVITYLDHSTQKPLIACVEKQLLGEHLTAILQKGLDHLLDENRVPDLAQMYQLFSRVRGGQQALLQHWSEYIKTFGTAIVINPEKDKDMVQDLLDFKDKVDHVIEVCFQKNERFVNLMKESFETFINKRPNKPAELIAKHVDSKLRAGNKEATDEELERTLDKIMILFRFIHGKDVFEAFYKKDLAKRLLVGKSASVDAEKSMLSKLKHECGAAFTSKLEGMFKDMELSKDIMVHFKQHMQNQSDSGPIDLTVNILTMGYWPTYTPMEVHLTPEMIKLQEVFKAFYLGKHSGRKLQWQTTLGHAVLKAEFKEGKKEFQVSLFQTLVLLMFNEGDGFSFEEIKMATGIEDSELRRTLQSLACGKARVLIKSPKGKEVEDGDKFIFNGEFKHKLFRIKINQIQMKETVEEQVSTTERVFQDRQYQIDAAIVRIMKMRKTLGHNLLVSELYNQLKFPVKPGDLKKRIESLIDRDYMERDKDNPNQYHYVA
Cullin-1 (Homo sapiens), sequence (Q13616 whole entry): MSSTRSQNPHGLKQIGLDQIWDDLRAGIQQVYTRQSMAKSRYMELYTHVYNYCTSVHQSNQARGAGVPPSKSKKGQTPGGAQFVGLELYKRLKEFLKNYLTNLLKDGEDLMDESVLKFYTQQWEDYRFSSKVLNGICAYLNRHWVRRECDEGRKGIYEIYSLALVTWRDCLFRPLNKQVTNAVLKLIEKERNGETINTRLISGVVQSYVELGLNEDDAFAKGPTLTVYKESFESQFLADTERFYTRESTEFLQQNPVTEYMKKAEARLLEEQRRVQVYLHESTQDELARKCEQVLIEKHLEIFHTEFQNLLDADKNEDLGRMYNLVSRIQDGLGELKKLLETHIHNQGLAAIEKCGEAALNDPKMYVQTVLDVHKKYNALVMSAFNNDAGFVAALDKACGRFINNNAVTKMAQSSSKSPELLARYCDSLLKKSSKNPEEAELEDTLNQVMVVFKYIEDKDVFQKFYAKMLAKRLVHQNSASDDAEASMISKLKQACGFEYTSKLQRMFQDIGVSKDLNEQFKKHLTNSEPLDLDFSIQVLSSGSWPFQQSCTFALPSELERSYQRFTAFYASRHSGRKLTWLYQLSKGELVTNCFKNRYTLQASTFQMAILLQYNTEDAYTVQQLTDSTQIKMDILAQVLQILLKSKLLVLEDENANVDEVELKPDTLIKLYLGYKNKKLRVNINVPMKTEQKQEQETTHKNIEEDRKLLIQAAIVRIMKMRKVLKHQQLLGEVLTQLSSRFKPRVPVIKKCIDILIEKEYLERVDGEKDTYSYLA
Cullin-4B (Homo sapiens), sequence (Q13620 whole entry): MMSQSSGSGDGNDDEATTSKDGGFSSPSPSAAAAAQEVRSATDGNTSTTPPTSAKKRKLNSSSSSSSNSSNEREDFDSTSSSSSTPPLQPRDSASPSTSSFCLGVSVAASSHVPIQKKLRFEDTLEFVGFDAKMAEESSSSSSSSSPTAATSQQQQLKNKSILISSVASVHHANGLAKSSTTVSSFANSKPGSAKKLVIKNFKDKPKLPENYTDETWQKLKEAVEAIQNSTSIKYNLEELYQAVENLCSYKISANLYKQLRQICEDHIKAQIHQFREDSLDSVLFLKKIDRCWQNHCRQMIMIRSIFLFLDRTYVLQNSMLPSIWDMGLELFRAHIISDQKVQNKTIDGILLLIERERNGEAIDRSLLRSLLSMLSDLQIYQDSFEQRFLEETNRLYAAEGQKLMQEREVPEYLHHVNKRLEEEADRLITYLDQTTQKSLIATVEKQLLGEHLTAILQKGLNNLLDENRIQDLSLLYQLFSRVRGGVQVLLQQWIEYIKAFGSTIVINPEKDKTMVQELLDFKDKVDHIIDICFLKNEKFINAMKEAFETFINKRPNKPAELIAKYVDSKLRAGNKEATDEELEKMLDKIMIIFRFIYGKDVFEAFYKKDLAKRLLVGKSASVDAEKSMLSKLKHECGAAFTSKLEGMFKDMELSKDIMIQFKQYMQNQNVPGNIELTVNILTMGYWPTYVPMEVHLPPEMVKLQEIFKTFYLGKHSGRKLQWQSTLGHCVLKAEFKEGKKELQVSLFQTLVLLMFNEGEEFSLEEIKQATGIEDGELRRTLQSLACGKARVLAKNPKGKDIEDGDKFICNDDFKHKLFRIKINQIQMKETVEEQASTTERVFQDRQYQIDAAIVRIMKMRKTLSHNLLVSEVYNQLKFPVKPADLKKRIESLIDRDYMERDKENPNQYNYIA
Cullin-4A (Mus musculus), sequence (Q3TCH7 whole entry): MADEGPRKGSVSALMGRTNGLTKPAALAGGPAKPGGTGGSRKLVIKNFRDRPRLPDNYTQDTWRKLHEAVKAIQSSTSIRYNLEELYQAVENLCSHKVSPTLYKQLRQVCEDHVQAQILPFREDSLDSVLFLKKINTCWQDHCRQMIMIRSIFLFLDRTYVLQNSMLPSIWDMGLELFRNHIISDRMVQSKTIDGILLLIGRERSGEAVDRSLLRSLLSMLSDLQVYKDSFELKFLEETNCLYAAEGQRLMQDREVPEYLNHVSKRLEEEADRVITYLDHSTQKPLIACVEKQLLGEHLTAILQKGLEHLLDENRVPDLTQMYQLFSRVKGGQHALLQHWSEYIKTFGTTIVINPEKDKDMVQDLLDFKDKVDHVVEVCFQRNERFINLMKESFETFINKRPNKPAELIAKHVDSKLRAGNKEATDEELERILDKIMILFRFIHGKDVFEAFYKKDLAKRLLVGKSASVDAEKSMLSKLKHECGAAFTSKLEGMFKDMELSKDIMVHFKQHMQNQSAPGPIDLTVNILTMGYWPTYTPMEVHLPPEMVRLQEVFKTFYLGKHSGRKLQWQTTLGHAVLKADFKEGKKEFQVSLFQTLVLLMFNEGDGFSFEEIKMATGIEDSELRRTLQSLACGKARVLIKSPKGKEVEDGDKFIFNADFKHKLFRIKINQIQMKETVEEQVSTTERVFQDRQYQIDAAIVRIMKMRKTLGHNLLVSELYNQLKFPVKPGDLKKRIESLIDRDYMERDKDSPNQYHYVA

Question: How did the “inhibition (active/inactive call)” value (Cullin-4A (Mus musculus) [1]) turn out when N#CC1=C(N)SC(N)=C(C#N)C1c1ccco1 was run?
Answer: Active

Question: And the inhibition (Cullin-1 (Homo sapiens))?
Answer: inactive

Question: What about the inhibition (Cullin-4B (Homo sapiens)) of the same compound?
Answer: inactive

Question: For CC1(C)Cc2c(c(N3CCNCC3)[nH]c(=S)c2C#N)CO1, which “inhibition (active/inactive call)” value (Cullin-4A (Mus musculus) [1]) is on record?
Answer: Active

Question: How did the “inhibition (active/inactive call)” value (Cullin-4A (Mus musculus) [1]) turn out when O=c1oc2c(Br)c(O)c(Br)cc2s1 was run?
Answer: Active

Question: And the inhibition (Cullin-4B (Homo sapiens))?
Answer: inactive

Question: N#Cc1c(-c2ccco2)c2c([nH]c1=S)CCCC2 was tested. Which IC50 (Cullin-4A [2]) did it give?
Answer: 554 nM

Question: CCOC(=O)Oc1cc2oc(=O)sc2cc1Br was tested. Which “inhibition (active/inactive call)” value (Cullin-4A (Mus musculus) [1]) did it give?
Answer: Active

Question: N#CC1=C(N)SC(N)=C(C#N)C1c1ccc(C(F)(F)F)cc1 was tested. Which IC50 (Cullin-4A [2]) did it give?
Answer: > 50000 nM

Question: With CCOC(=O)Oc1cc2oc(=O)sc2cc1Cl as the compound, how does the “inhibition (active/inactive call)” value (Cullin-4A (Mus musculus) [1]) read?
Answer: Active

Question: What does the source list for COc1ccc(-c2c(C#N)c(S)nc3c2CCC3)cc1?
Answer: inhibition (active/inactive call) (Cullin-4A (Mus musculus) [1]): Active; inhibition (Cullin-1 (Homo sapiens)): inactive; inhibition (Cullin-4B (Homo sapiens)): inactive

Question: How did the IC50 (Cullin-4A [2]) turn out when N#Cc1c(-c2ccncc2)c2c([nH]c1=S)CCCC2 was run?
Answer: 2680 nM

Question: For N#CC1=C(N)SC(N)=C(C#N)C1c1cccs1, which “inhibition (active/inactive call)” value (Cullin-4A (Mus musculus) [1]) is on record?
Answer: Active

Question: What about the inhibition (Cullin-1 (Homo sapiens)) of the same compound?
Answer: inactive

Question: And the inhibition (Cullin-4B (Homo sapiens))?
Answer: inactive

Question: N#CC1=C(N)SC(N)=C(C#N)C1c1ccccc1F was tested. Which “inhibition (active/inactive call)” value (Cullin-4A (Mus musculus) [1]) did it give?
Answer: Active

Question: What about the inhibition (Cullin-4A [3]) of the same compound?
Answer: Active

Question: What about the inhibition (Cullin-1 (Homo sapiens)) of the same compound?
Answer: inactive

Question: What about the inhibition (Cullin-4A (Mus musculus) [4]) of the same compound?
Answer: Dose-dependent effect

Question: What about the inhibition (Cullin-4B (Homo sapiens)) of the same compound?
Answer: inactive

Question: With COc1ccc(-c2c3c([nH]c(=S)c2C#N)CCC3)cc1 as the compound, how does the IC50 (Cullin-4A [2]) read?
Answer: 997 nM

Question: With CC(C)c1nnc(S)n1-c1ccc(Cl)c(Cl)c1 as the compound, how does the “inhibition (active/inactive call)” value (Cullin-4A (Mus musculus) [1]) read?
Answer: Active

Question: What about the IC50 (Cullin-4A [2]) of the same compound?
Answer: < 240 nM

Question: And the inhibition (Cullin-4B (Homo sapiens))?
Answer: inactive

Question: For COc1nsc(I)c1C#N, which “inhibition (active/inactive call)” value (Cullin-4A (Mus musculus) [1]) is on record?
Answer: Active

Question: And the inhibition (Cullin-4B (Homo sapiens))?
Answer: inactive

Question: How did the IC50 (Cullin-4A [2]) turn out when CNC(=O)Oc1c(Br)cc2sc(=O)oc2c1Br was run?
Answer: < 240 nM

Question: Which “inhibition (active/inactive call)” value (Cullin-4A (Mus musculus) [1]) does the source give for N#Cc1c(S)nc2c(c1-c1ccco1)CCCC2 here?
Answer: Active

Question: What about the inhibition (Cullin-4A [3]) of the same compound?
Answer: Active

Question: What about the inhibition (Cullin-1 (Homo sapiens)) of the same compound?
Answer: inactive

Question: What about the inhibition (Cullin-4A (Mus musculus) [4]) of the same compound?
Answer: Dose-dependent effect

Question: And the inhibition (Cullin-4B (Homo sapiens))?
Answer: inactive

Question: With CCOC(=O)Oc1c(Cl)cc2oc(=O)sc2c1Cl as the compound, how does the “inhibition (active/inactive call)” value (Cullin-4A (Mus musculus) [1]) read?
Answer: Active

Question: COC(=O)c1sc(=S)n(-c2ccc(F)cc2F)c1N was tested. Which “inhibition (active/inactive call)” value (Cullin-4A (Mus musculus) [1]) did it give?
Answer: Active

Question: With COC(=O)Oc1cc2oc(=O)sc2cc1Cl as the compound, how does the “inhibition (active/inactive call)” value (Cullin-4A (Mus musculus) [1]) read?
Answer: Active

Question: Which results are given for COc1ccc(-c2c3c([nH]c(=S)c2C#N)CCCC3)cc1?
Answer: inhibition (active/inactive call) (Cullin-4A (Mus musculus) [1]): Active; inhibition (Cullin-1 (Homo sapiens)): inactive; inhibition (Cullin-4B (Homo sapiens)): inactive

Question: For CC(=O)CN1C(=O)C(=O)c2cc(Br)ccc21, which “inhibition (active/inactive call)” value (Cullin-4A (Mus musculus) [1]) is on record?
Answer: Active

Question: For Clc1ccc2nc(Cl)c3nnnn3c2c1, which “inhibition (active/inactive call)” value (Cullin-4A (Mus musculus) [1]) is on record?
Answer: Active

Question: For COC(=O)Oc1c(Br)c(C)c2oc(=O)sc2c1Br, which IC50 (Cullin-4A [2]) is on record?
Answer: < 240 nM

Question: Which “inhibition (active/inactive call)” value (Cullin-4A (Mus musculus) [1]) does the source give for Sc1nnc(C2CC2)n1-c1ccc(Cl)c(Cl)c1 here?
Answer: Active

Question: What about the IC50 (Cullin-4A [2]) of the same compound?
Answer: 703000 nM

Question: And the inhibition (Cullin-4B (Homo sapiens))?
Answer: inactive

Question: Which IC50 (Cullin-4A [2]) does the source give for N#CC1=C(N)SC(N)=C(C#N)C1c1cc(Br)ccc1F here?
Answer: 690000 nM

Question: For O=[N+]([O-])c1c(Cl)ncnc1N1CCCCC1CO (stereo not drawn), which “inhibition (active/inactive call)” value (Cullin-4A (Mus musculus) [1]) is on record?
Answer: Active

Question: What does the source list for COc1ccc(-c2nnc(S)n2-c2ccc(C)cc2)cc1?
Answer: inhibition (active/inactive call) (Cullin-4A (Mus musculus) [1]): Active; IC50 (Cullin-4A [2]): 2400 nM; inhibition (Cullin-4B (Homo sapiens)): inactive

Question: How did the inhibition (Proteasome) turn out when CC(C)C[C@@H](C=O)NC(=O)[C@H](CC(C)C)NC(=O)[C@H](CC(C)C)NC(=O)OCc1ccccc1 (Cbz-Leu-Leu-Leu-aldehyde) was run?
Answer: Active

Question: For N#CC1=C(N)SC(N)=C(C#N)C1CCc1ccccc1, which IC50 (Cullin-4A [2]) is on record?
Answer: 3680 nM
